Measurements published in patent US10206394B2, “Herbicidal compounds” (Syngenta Participations AG, priority 2014, dated 2019).
Read-outs that look alike come from different tables or passages of the source.

Columns and labels:
Test in all cases: Glasshouse assay for herbicidal activity (pre- and post-emergence), percentage phytotoxicity
Type in all cases: in vivo
[1] = test system: Alopecurus myosuroides (ALOMY); conditions: Alopecurus myosuroides, 250 g/ha, visual assessment (100%=total damage, 0%=no damage)
Outline: (§1)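 Seeds were sown in standard soil in pots and grown one day (pre-emergence) or about 12 days (post-emergence) before herbicide application. Plants were kept at 24/18 °C (warm-climate) or 20/16 °C (cool-climate) day/night, 16 h light, 65% humidity, watered twice daily, and damage was scored visually at 15 DAA (POST) or 20 DAA (PRE).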

Avena fatua (AVEFA) = conditions: Avena fatua, 250 g/ha, visual assessment (100%=total damage, 0%=no damage)
Outline: as §1

[2] = test system: Echinochloa crus-galli (ECHCG); conditions: Echinochloa crus-galli, 250 g/ha, visual assessment (100%=total damage, 0%=no damage)
Outline: as §1

Lolium perenne (LOLPE) = conditions: Lolium perenne, 250 g/ha, visual assessment (100%=total damage, 0%=no damage)
Outline: as §1

[3] = post-emergence, 360 h, post-emergence, 15 DAA, read-out: Post-emergence herbicidal activity (percentage phytotoxicity) ALOMY POST
[4] = pre-emergence, 480 h, pre-emergence, 20 DAA, read-out: Pre-emergence herbicidal activity (percentage phytotoxicity) ALOMY PRE
[5] = post-emergence, 360 h, post-emergence, 15 DAA, read-out: Post-emergence herbicidal activity (percentage phytotoxicity) AVEFA POST
[6] = pre-emergence, 480 h, pre-emergence, 20 DAA, read-out: Pre-emergence herbicidal activity (percentage phytotoxicity) AVEFA PRE
[7] = post-emergence, 360 h, post-emergence, 15 DAA, read-out: Post-emergence herbicidal activity (percentage phytotoxicity) ECHCG POST
[8] = pre-emergence, 480 h, pre-emergence, 20 DAA, read-out: Pre-emergence herbicidal activity (percentage phytotoxicity) ECHCG PRE
[9] = post-emergence, 360 h, post-emergence, 15 DAA, read-out: Post-emergence herbicidal activity (percentage phytotoxicity) LOLPE POST
[10] = pre-emergence, 480 h, pre-emergence, 20 DAA, read-out: Pre-emergence herbicidal activity (percentage phytotoxicity) LOLPE PRE

Compound | pest or weed control at 250 g/ha [1, 3] [%] | pest or weed control at 250 g/ha [1, 4] [%] | pest or weed control at 250 g/ha (Avena fatua (AVEFA); [5]) [%] | pest or weed control at 250 g/ha (Avena fatua (AVEFA); [6]) [%] | pest or weed control at 250 g/ha [2, 7] [%] | pest or weed control at 250 g/ha [2, 8] [%] | pest or weed control at 250 g/ha (Lolium perenne (LOLPE); [9]) [%] | pest or weed control at 250 g/ha (Lolium perenne (LOLPE); [10]) [%]
CCCNC(=O)CC1CC(=O)C(c2c(C)cc(Br)cc2C)C1=O (stereo not shown) [Compound B145] | 80 | 70 | 90 | 60 | 80 | 80 | 90 | 90
Cc1cc(OCC(F)(F)F)cc(C)c1C1C(=O)CC(CC(=O)N2CCOCC2)C1=O (stereo not shown) [Compound B146] | 80 | 90 | 90 | 50 | 100 | 100 | 90 | 90
C=C(C)CNC(=O)CC1CC(=O)C(c2c(C)cc(OCC(F)(F)F)cc2C)C1=O (stereo not shown) [Compound B147] | 80 | 90 | 90 | 50 | 90 | 100 | 60 | 90
CCc1cccc(C)c1C1C(=O)CC(CC(=O)N2CCOCC2)C1=O (stereo not shown) [Compound B148] | 90 | 70 | 100 | 70 | 100 | 100 | 90 | 80
CCc1cccc(C)c1C1C(=O)CC(CC(=O)NC(C)(C)C)C1=O (stereo not shown) [Compound B149] | 90 | 90 | 90 | 80 | 90 | 100 | 80 | 90
CCCNC(=O)CC1CC(=O)C(c2c(C)cccc2CC)C1=O (stereo not shown) [Compound B150] | 100 | 100 | 100 | 90 | 100 | 100 | 100 | 100
C#CCNC(=O)CC1CC(=O)C(c2c(C)cccc2CC)C1=O (stereo not shown) [Compound B151] | 100 | 100 | 100 | 90 | 100 | 100 | 90 | 90
C=C(C)CNC(=O)CC1CC(=O)C(c2c(C)cccc2CC)C1=O (stereo not shown) [Compound B152] | 100 | 100 | 90 | 50 | 100 | 100 | 90 | 100
C/C=C/c1cc(C)c(C2C(=O)CC(CC(N)=O)C2=O)c(CC)c1 (stereo not shown) [Compound B153] | 100 | 90 | 100 | 70 | 100 | 90 | 100 | 80
Cc1cc(OCC(F)(F)F)cc(C)c1C1C(=O)CC(CC(N)=O)C1=O (stereo not shown) [Compound B154] | 70 | 90 | 70 | 50 | 90 | 80 | 70 | 70
CC#Cc1cc(C)c(C2C(=O)CC(CC(=O)N3CCOCC3)C2=O)c(C)c1 (stereo not shown) [Compound B155] | 100 | 90 | 100 | 100 | 100 | 100 | 100 | 100
CC#Cc1cc(C)c(C2C(=O)CC(CC(=O)NCCCOC)C2=O)c(C)c1 (stereo not shown) [Compound B156] | 100 | 100 | 100 | 100 | 100 | 100 | 100 | 100
C=CCNC(=O)CC1CC(=O)C(c2c(C)cc(C#CC)cc2C)C1=O (stereo not shown) [Compound B157] | 100 | 100 | 100 | 90 | 100 | 100 | 100 | 100
Cc1cc(C)c(C2C(=O)CC(CC(=O)NCC3CC3(F)F)C2=O)c(C)c1 (stereo not shown) [Compound B158] | 90 | 90 | 80 | 90 | 80 | 100 | 90 | 100
Cc1cc(C)c(C2C(=O)CC(CC(=O)NCC=C(Cl)Cl)C2=O)c(C)c1 (stereo not shown) [Compound B159] | 70 | 80 | 90 | 0 | 80 | 90 | 90 | 90
Cc1cc(-c2ncc(Cl)cc2F)cc(C)c1C1C(=O)CC(CC(=O)NCC2CC2(Cl)Cl)C1=O (stereo not shown) [Compound B160] | 100 | 90 | 100 | 80 | 100 | 100 | 100 | 90
C/C=C/CNC(=O)CC1CC(=O)C(c2c(C)cc(-c3ncc(Cl)cc3F)cc2C)C1=O (stereo not shown) [Compound B161] | 100 | 90 | 100 | 80 | 100 | 90 | 100 | 100
Cc1cc(-c2ncc(Cl)cc2F)cc(C)c1C1C(=O)CC(CC(=O)NC/C=C/Cl)C1=O (stereo not shown) [Compound B162] | 100 | 100 | 100 | 90 | 100 | 100 | 100 | 100
CC(C)=CCNC(=O)CC1CC(=O)C(c2c(C)cc(C)cc2C)C1=O (stereo not shown) [Compound B163] | 80 | 90 | 80 | 50 | 90 | 90 | 80 | 100
CCc1cc(OCC(F)(F)F)cc(C)c1C1C(=O)CC(CC(=O)N2CCOCC2)C1=O (stereo not shown) [Compound B164] | 100 | 100 | 90 | 100 | 100 | 100 | 100 | 100
